Test results: patent US6639023B1, “Fluorophenyl resin compounds” (Aventis Pharmaceuticals Inc., priority 1998, dated 2003)

Target: Factor Xa (Homo sapiens, UniProt P00742)
Experiment: IC50 against Factor Xa
Format: biochemical

Factor Xa, sequence (P00742 235-488 limits assumed): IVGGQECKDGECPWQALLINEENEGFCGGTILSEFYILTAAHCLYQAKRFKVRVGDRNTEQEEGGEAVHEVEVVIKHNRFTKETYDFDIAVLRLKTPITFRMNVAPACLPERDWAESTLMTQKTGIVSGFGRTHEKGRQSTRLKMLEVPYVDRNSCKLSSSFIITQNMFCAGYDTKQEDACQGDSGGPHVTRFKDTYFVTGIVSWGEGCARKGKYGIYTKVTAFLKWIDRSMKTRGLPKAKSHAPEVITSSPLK
Factor Xa, sequence (P00742 41-179 partner limits assumed): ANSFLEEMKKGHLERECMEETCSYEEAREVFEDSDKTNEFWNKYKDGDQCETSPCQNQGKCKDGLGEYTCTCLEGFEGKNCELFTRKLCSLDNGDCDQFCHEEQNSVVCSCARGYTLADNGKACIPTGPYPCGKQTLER

**Q.** How did the IC50 turn out when `O=C1[C@@H](NS(=O)(=O)c2cc3ccc(Cl)cc3s2)CCN1Cc1cc2ncccc2[nH]1` [Example 24] was run?
**A.** < 500 nM
